ChEMBL document CHEMBL1129599, “Quantitative structure-activity relationship study of fibrinogen inhibitors, [[4-(4-amidinophenoxy)butanoyl]aspartyl]valine (FK633) derivatives, using a novel hydrophobic descriptor” (J Med Chem, 1996)

How the values were obtained:
[1] = The retention time in min (35 uM); format: ADME
[2] = Micelle/water partition coefficient; format: ADME; conditions: buffer
[3] = The retention time in min (30 uM); format: ADME
[4] = Inhibition of alphaIIb-beta3 integrin
[5] = The retention time in min (25 uM); format: ADME
[6] = The retention time in min (40 uM); format: ADME
[7] = biological target: T1, Integrin alpha-IIb/beta-3 (Homo sapiens, UniProt P05106+P08514); test: Inhibition of alphaIIb-beta3 integrin; format: protein-complex assay
[8] = Inhibition of binding to fibrinogen receptor
[9] = biological target: T1, Integrin alpha-IIb/beta-3; test: Inhibition of binding to integrin alphaIIb-beta3; format: protein-complex assay

T1 sequence (P05106 27-788 limits assumed): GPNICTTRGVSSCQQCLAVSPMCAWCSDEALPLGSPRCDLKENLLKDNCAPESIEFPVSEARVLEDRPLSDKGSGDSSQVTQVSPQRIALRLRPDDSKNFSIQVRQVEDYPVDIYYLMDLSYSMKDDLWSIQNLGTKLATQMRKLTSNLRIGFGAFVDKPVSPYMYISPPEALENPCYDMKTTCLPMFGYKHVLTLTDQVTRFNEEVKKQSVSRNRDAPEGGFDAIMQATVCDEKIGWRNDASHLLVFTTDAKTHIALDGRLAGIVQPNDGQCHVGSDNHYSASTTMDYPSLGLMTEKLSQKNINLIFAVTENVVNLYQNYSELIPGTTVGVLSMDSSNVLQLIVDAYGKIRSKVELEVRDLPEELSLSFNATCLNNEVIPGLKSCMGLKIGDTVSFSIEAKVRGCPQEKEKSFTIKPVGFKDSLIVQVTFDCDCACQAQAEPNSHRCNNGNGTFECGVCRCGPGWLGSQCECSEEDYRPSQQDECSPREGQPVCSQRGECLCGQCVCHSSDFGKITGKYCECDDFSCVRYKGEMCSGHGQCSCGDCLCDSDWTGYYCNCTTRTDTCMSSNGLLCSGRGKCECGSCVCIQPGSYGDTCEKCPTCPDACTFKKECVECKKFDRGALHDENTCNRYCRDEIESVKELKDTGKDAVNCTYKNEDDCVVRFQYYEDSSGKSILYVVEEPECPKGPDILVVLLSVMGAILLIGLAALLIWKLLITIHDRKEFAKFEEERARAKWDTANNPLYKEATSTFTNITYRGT
T1 sequence (P08514 32-887 limits assumed): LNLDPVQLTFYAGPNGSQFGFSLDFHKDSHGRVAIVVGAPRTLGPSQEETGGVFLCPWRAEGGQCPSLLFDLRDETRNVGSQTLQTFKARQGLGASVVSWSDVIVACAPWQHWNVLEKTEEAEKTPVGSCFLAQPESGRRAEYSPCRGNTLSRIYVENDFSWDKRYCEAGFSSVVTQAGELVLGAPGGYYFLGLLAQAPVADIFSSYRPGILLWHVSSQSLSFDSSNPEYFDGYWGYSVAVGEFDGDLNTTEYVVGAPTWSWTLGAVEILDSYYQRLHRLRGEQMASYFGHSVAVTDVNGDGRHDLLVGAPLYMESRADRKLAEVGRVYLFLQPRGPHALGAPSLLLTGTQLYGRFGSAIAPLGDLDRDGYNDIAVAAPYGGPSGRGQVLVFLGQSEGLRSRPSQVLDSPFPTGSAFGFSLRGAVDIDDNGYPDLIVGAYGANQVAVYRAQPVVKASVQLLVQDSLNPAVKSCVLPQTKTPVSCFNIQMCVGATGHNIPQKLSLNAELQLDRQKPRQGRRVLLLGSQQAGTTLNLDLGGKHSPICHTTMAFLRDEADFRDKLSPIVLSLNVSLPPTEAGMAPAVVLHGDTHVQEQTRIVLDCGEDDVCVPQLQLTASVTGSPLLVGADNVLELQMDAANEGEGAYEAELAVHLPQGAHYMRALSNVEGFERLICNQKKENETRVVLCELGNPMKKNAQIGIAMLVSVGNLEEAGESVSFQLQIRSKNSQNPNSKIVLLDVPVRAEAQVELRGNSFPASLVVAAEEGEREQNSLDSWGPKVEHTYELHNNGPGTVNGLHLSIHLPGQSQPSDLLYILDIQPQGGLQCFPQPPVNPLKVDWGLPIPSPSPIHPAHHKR
T1 sequence (P08514 891-1039 limits assumed): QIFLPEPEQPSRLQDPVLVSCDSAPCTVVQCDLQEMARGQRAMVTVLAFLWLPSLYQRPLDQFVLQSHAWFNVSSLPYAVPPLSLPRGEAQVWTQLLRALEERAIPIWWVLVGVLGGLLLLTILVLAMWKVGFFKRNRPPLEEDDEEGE

SMILES | Retention time [1] [min] | Log Pmw [2] | Retention time [3] [min] | Log IC50 [4] | Retention time [5] [min] | Retention time [6] [min] | IC50 [7] [nM] | Log IC50 [8] | IC50 [9] [µM]
N=C(N)c1ccc(OCCCCC(=O)N[C@@H](CC(=O)O)C(=O)N[C@@H](Cc2ccc(O)cc2)C(=O)O)cc1 | 10.57 | 1.82 | 11.47 | -6.19 | 12.79 | 9.72 | – | – | –
N=C(N)c1ccc(OCCCC(=O)N[C@@H](CC(=O)O)C(=O)N[C@@H](Cc2ccc(O)cc2)C(=O)O)cc1 | 8.79 | 1.74 | 9.51 | – | 10.54 | 8.23 | – | – | –
CN(C(=O)[C@H](CC(=O)O)NC(=O)CCCOc1ccc(C(=N)N)cc1)[C@@H](Cc1ccc(O)cc1)C(=O)O | 11.82 | 1.96 | 13.01 | – | 14.85 | 10.91 | 129 | – | –
CN(C(=O)[C@H](CC(=O)O)NC(=O)CCCCOc1ccc(C(=N)N)cc1)[C@@H](Cc1ccc(O)cc1)C(=O)O | 14.24 | 2 | 15.67 | -6.57 | 17.87 | 12.91 | – | – | –
COC(=O)[C@H](Cc1ccc(O)cc1)NC(=O)[C@H](CC(=O)O)NC(=O)CCCCOc1ccc(C(=N)N)cc1 | 15.56 | 2.09 | 17.31 | – | 20.18 | 14.28 | – | – | 4.47

Continued, values first:

Retention time [1] [min] | Log Pmw [2] | Retention time [3] [min] | Log IC50 [4] | Retention time [5] [min] | Retention time [6] [min] | IC50 [7] [nM] | Log IC50 [8] | IC50 [9] [µM] | SMILES
3.238 | 0.904 | 3.269 | – | 3.324 | 3.199 | – | – | – | N=C(N)c1ccc(OCCCCC(=O)N[C@@H](CC(=O)O)C(=O)N[C@@H](CO)C(=O)O)cc1
8.25 | 1.47 | 8.773 | -6.85 | 9.413 | 7.826 | – | – | – | CC[C@H](C)[C@H](NC(=O)[C@H](CC(=O)O)NC(=O)CCCOc1ccc(C(=N)N)cc1)C(=O)O
8.25 | 1.47 | 8.773 | – | 9.413 | 7.826 | 135 | – | – | CC(C)C[C@H](NC(=O)[C@H](CC(=O)O)NC(=O)CCCOc1ccc(C(=N)N)cc1)C(=O)O
5.347 | 1.29 | 5.545 | – | 5.898 | 5.207 | 110 | – | – | CC(C)[C@H](NC(=O)[C@H](CC(=O)O)NC(=O)CCCOc1ccc(C(=N)N)cc1)C(=O)O
9.491 | 1.58 | 10.21 | – | 11.11 | 8.943 | – | -7.12 | – | CCCC[C@H](NC(=O)[C@H](CC(=O)O)NC(=O)CCCOc1ccc(C(=N)N)cc1)C(=O)O
6.832 | 1.32 | 7.12 | -6.64 | 7.547 | 6.52 | – | – | – | CC(C)[C@H](NC(=O)[C@H](CC(=O)O)NC(=O)CCCCOc1ccc(C(=N)N)cc1)C(=O)O
12.06 | 1.59 | 12.96 | – | 14.11 | 11.19 | 229 | – | – | CC(C)(C)C[C@H](NC(=O)[C@H](CC(=O)O)NC(=O)CCCOc1ccc(C(=N)N)cc1)C(=O)O
